US10626077B2, “Salvianolic acid compound T, preparation method therefor, and use thereof” (TASLY PHARMACEUTICAL GROUP CO., LTD., priority 2013, dated 2020)

Test system: rats with myocardial infarction induced by coronary artery ligation
Test: Myocardial infarction rate (TTC staining) after coronary artery ligation
Assay type: in vivo, SD rats
Conditions: high-dose group compared with aspirin group; FIG. 11 heart biopsy
Description: Clean male SD rats were taken and placed in groups randomly according to the body-weight, including pseudo operation group (distilled water), model group (distilled water), aspirin group, (S)-salvianolic acid T low-dose group, (S)-salvianolic acid T high-dose group, and there were 10 rats in each group. Each group of rats were administrated by gastric administration once a day, continuously for 10 days. […] Recording standard II lead ECG at 5 minutes before surgery, 0 s, 1 min, 5 min, 15 min, 1 h, 4 h after the ligation, to investigate the changes of J point of ECG. Taking out the heart immediately after the end of the experiment, washing away the blood with normal saline, cutting off the atrium and the bottom of the blood vessels, weighing the mass of the ventricle, cutting the ventricle into 5 pieces on average along the atrioventricular groove and putting them into 1% (w/v) TTC solution, dyeing in the water bath at a constant temperature of 37 °C for 5 min, taking digital photos firstly after taking them out, then separating the unstained parts (that is, the infarct parts) and weighing to calculate the percentage of them in the mass of total ventricular (myocardial infarction percentage), and performing t test with ischemia model group. The formula for calculating the infarct percentage is as follows: Infarct percentage (%)=(the mass of pale areas/the mass of the ventricle)×100%

## O=C(/C=C/c1ccc(O)c(O)c1/C(=C\c1ccc(O)c(O)c1)C(=O)O)O[C@H](Cc1ccc(O)c(O)c1)C(=O)O [(R)-salvianolic acid T]
  effect on preventing acute myocardial infarction induced by coronary artery ligation: equal effect
